Reference: patent US20240246994A1, “Polymorph Of Imidazolidinone Compound, Preparation Method Therefor And Use Thereof” (Betta Pharmaceuticals Co., Ltd., priority 2021, published 2024)
pIC50: −log10 of the molar value.

Legend:
PI3Kα = PI3Kα (Homo sapiens, UniProt P42336); assay: PI3Kα kinase assay (ADP-Glo, luminescence); type: biochemical; conditions: final ATP concentration 10 μM; read-out: IC50 of Compound PI3K α
Protocol: (§1) PI3Kα, PI3Kβ, PI3Kγ kinases were enzymatically reacted with their substrates ATP and PIP2:3PS, and the amount of the reaction products were determined to reflect the enzymatic activities of PI3Kα, PI3Kβ, PI3Kγ using ADP-Glo reagent and luminescence method (final ATP concentration of 10 μM). The inhibitory activities of Compound 1 of the present invention on PI3Kα, PI3Kβ and PI3Kγ kinases were tested using the above method.
(§2) Reagents: basic kinase buffer (pH 7.5); PI3Kα, PI3Kβ, PI3Kγ enzyme solutions; solution of PIP2:3PS and ATP; and ADP-Glo kit (containing 10 mM of MgCl2).
(§3) Among them, the buffer components are: 50 mM of Hepes (pH 7.2 to pH 7.5), 3 mM of MgCl2, 1 mM of EGTA, 0.03% of CHAPS, 100 mM of NaCl, and 2 mM of DTT;
(§4) Preparation of compound: Compound 1 of the present application was completely dissolved in DMSO and diluted to a specific concentration so that the final concentration of the compound in the incubation system was 1000 nM, 333 nM, 111 nM, 37 nM, 12.4 nM, 4.1 nM, 1.4 nM, 0.46 nM, 0.15 nM and 0.05 nM (PI3Kα); 30,000 nM, 10,000 nM, 3333 nM, 1111 nM, 370 nM, 123 nM, 41 nM, 13.7 nM, 4.6 nM and 1.5 nM (PI3Kβ, PI3Kγ). […]

PI3Kβ = PI3Kβ (Homo sapiens, UniProt P42338); assay: PI3Kβ kinase assay (ADP-Glo, luminescence); type: biochemical; conditions: final ATP concentration 10 μM; read-out: IC50 of Compound PI3K β
Protocol: as §1, §2, §3, §4

MCF-7 cells = assay: Cell proliferation assay (CellTiter Glo), MCF-7; type: cell-based; conditions: Homo sapiens, MCF7; 120 h incubation; read-out: IC50 of compounds on MCF-7 cells
Protocol: Method: CellTiter Glo assay method was used to observe the growth inhibitory effect of Compound 1 of the present application on human tumor cells MCF-7 and HGC-27 cultured in vitro.
Assay method: MCF-7 cells were suspended in DMEM medium to form a cell suspension, and the cell concentration was adjusted to 25,000 cells/mL. HGC-27 cells were suspended in RPMI-1640 medium to form a cell suspension, and the cell concentration was adjusted to 5,000 cells/mL. 100 μL of cell suspension was added to a 96-well plate and placed in a CO2 incubator overnight. Compound 1 was completely dissolved in DMSO and 3-fold gradient dilution was performed to obtain a total of 10 concentrations. The 10 concentrations of the compounds to be tested or the DMSO negative control were transferred to the wells containing 100 μL of medium to give final concentrations of the compounds of 30,000 nM, 10,000 nM, 3,333 nM, 1,111 nM, 370 nM, 123 nM, 41 nM, 13.7 nM, and 4.6 nM, respectively. Incubation was performed at 37° C. under 5% CO2 for 96 h for HGC-27 cells and 120 h for MCF-7 cells. Then 100 μL of CellTiter-Glo reagent was added to the above 96-well plate and placed at room temperature for 10 min to stabilize the luminescence signal. The RLU (relative luminescence unit) value was recorded using a VICTOR™ X5 instrument, and then the IC50 value was calculated. […]

PI3Kγ = PI3Kγ (Homo sapiens, UniProt P48736); assay: PI3Kγ kinase assay (ADP-Glo, luminescence); type: biochemical; conditions: final ATP concentration 10 μM; read-out: IC50 of Compound PI3K γ
Protocol: as §1, §2, §3, §4

[1] = Grinding sensitivity assay (XRPD); type: physicochemical; conditions: manual grinding in a mortar, 1 min
DVS assay = type: physicochemical; conditions: 80% RH, 25° C.
Protocol: A Surface Measurement Systems Dynamic Vapor Sorption Analyzer (model of DVS Resolution) was used with an N2 flow rate: 200 sccm, detection temperature: 25° C., equilibrium time range: 5 min to 360 min, RH gradient: 10% (50% RH to 90% RH, 90% RH to 0% RH to 90% RH), and 5% (90% RH to 95% RH, 95% RH to 90% RH) to obtain dynamic vapor sorption analysis pattern.

[2] = Stress testing (influencing factors), total impurity content; type: physicochemical
[3] = Pressure sensitivity assay (tabletting, XRPD); type: physicochemical; conditions: pressure 200, 300 and 500 kg/cm^2, 3 min
[4] = Stability test of crystal form C (influencing factor, accelerated, long-term); type: physicochemical
Excerpt: The conditions and methods for the stability test of crystal form C of Compound 1 are mainly based on the requirements of “9001 Guidelines for Stability Test of APIs and Pharmaceutical Preparations” of the fourth part general rules of the 2020 edition of the Chinese Pharmacopoeia, as shown in Table 4. [table]

[5] = Pharmacokinetic assay in rats, single gavage; type: in vivo; conditions: rat, plasma, po, male SD rats, 10 mg/kg
Protocol: Medicament preparation: the control compound, crystal form M of Compound 1 and amorphous form of Compound 2 obtained in Example 1 were weighed and prepared into a 10 mg/mL of solution to be tested in a mixture of 10% of DMSO, 10% of Solutol and 80% of saline; crystal form C of Compound 1 was added into a mixture of 5% of solutol and 95% of 0.5% CMCNa to prepare a 10 mg/mL of solution to be tested.
Assay method: 15 male SD rats with weights: 150 g to 300 g were randomly divided into 5 groups of 3 rats each, and […] of the Example compound was administered by single gavage. The blood was collected through the orbital venous plexus at the designated time points (5 min, 15 min, 30 min, 1 h, 2 h, 4 h, 7 h and 24 h) respectively, and the plasma was separated and stored in a refrigerator at −80° C. for spare use. After precipitation of proteins from the above plasma samples by acetonitrile, the supernatant was extracted and mixed with water at 1:1, and 10 μL of which was taken for LC-MS/MS detection.

[6] = test system: catalytic subunit of PI3K (α-subunit compared to β-subunit); conditions: cited from earlier work
[7] = High temperature of 40° C., Day 5
[8] = High temperature of 40° C., Day 30
[9] = High temperature of 60° C., Day 5
[10] = High temperature of 60° C., Day 30

Sequence of PI3Kα (P42336 whole entry): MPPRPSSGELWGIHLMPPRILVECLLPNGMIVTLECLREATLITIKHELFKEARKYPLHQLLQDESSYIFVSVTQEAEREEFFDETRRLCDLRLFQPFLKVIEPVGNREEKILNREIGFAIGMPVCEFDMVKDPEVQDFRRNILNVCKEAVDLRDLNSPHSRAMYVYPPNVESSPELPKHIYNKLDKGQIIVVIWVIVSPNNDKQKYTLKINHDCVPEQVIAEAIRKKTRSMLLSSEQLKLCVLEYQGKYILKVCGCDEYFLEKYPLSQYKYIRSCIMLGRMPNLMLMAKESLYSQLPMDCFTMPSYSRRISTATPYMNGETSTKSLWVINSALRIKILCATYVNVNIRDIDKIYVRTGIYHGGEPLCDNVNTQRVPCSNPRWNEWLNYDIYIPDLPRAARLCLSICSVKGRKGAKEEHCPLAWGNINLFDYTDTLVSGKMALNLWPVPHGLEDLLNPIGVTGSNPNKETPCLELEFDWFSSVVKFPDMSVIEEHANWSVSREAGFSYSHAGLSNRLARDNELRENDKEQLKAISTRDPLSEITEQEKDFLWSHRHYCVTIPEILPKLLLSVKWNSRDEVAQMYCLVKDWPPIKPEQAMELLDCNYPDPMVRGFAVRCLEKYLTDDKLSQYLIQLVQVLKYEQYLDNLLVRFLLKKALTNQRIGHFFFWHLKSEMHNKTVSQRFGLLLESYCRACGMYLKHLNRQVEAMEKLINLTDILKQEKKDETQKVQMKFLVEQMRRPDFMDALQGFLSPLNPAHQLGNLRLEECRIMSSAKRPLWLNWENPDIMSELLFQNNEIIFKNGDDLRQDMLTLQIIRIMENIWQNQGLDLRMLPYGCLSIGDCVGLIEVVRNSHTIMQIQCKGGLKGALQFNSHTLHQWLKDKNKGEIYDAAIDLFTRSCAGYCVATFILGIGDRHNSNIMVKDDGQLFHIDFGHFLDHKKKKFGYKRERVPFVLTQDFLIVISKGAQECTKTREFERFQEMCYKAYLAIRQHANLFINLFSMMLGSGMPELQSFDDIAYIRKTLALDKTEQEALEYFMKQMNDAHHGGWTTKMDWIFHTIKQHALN
Sequence of PI3Kα (P27986 whole entry partner): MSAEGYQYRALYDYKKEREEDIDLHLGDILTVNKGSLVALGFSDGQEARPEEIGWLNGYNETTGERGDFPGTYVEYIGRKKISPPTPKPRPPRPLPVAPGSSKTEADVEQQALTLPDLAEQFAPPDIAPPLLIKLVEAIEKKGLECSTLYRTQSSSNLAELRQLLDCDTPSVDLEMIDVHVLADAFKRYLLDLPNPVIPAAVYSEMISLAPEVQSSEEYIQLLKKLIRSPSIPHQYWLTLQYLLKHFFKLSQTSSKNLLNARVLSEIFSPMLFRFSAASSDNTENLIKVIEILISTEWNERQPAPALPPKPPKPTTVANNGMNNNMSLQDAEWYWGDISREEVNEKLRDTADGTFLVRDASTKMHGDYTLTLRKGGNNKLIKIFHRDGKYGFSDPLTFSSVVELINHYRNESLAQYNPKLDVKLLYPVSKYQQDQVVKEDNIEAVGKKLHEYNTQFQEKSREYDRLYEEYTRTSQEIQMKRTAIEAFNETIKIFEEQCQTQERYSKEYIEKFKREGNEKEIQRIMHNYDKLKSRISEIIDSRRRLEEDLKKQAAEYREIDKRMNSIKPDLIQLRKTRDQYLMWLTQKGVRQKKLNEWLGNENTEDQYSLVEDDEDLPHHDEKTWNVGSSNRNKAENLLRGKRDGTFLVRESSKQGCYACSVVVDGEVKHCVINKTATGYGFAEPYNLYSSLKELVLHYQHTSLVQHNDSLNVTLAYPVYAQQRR
Sequence of PI3Kγ (P48736 whole entry): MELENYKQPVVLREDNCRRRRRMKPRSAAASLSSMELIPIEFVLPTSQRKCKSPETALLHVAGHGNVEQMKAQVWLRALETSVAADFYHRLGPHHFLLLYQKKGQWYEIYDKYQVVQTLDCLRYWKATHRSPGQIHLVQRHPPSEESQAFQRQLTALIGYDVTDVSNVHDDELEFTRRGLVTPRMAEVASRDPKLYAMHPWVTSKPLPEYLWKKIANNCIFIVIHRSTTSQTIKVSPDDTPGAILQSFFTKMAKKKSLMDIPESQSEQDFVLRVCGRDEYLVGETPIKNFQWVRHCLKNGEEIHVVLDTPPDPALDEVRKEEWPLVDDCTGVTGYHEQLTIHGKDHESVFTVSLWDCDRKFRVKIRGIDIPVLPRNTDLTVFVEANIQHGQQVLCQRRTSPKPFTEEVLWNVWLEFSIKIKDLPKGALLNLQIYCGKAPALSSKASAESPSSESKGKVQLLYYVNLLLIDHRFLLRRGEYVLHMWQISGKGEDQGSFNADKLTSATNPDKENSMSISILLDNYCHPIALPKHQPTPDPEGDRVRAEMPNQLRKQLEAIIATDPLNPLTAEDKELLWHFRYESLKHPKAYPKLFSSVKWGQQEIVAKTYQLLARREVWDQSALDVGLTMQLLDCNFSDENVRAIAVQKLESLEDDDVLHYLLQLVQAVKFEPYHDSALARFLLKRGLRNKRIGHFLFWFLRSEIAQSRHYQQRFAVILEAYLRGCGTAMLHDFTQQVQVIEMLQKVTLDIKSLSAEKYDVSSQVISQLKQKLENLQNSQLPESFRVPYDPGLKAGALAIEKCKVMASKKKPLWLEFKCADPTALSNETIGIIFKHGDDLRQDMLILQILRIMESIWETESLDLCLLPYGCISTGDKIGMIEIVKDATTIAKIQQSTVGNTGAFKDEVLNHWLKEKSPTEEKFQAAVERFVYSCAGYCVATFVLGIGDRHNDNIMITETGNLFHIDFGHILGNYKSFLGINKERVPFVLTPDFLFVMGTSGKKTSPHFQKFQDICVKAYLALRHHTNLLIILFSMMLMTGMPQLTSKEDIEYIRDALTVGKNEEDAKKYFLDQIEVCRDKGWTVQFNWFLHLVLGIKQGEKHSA
Sequence of PI3Kβ (P42338 whole entry): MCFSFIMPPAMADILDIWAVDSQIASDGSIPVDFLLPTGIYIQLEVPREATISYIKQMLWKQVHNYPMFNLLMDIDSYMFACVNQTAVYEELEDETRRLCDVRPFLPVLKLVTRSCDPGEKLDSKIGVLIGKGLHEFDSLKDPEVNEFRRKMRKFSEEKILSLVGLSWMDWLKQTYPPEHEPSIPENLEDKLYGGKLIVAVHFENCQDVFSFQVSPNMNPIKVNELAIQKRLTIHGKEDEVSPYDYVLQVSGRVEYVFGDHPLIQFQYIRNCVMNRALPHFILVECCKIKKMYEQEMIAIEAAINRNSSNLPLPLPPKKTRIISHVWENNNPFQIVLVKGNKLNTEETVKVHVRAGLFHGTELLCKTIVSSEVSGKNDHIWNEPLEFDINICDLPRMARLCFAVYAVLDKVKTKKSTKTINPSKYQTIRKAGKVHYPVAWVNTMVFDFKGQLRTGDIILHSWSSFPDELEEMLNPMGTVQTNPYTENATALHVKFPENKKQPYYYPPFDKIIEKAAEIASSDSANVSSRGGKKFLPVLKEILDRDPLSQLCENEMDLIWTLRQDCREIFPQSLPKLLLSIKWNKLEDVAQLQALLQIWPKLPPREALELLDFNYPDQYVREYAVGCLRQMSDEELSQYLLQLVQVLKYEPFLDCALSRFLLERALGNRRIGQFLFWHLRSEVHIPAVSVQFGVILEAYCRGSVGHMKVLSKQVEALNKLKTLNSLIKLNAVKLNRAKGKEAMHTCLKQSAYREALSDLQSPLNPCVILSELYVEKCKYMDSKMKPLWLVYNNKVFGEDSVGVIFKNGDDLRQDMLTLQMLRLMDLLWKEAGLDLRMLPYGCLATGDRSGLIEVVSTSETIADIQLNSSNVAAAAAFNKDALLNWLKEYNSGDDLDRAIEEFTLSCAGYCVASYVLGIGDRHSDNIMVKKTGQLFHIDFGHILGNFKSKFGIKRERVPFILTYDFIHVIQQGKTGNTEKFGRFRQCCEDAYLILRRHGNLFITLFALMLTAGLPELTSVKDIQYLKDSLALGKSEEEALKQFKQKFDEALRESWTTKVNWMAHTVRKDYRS
Sequence of PI3Kβ (P27986 whole entry partner): as the sequence (P27986 whole entry partner) above

SMILES | mass gain (DVS) (DVS assay) [%] | Total impurity content of the related material ([2]; Day 0) [%] | Total impurity content of the related material ([2]; High humidity of 75%, Day 5) [%] | Total impurity content of the related material ([2]; High humidity of 75%, Day 30) [%] | Total impurity content of the related material ([2]; High humidity of 92.5%, Day 5) [%] | Total impurity content of the related material ([2]; High humidity of 92.5%, Day 30) [%] | Total impurity content of the related material [2, 7] [%] | Total impurity content of the related material [2, 8] [%] | Total impurity content of the related material [2, 9] [%] | Total impurity content of the related material [2, 10] [%] | Result: crystal form after tabletting [3] | XRPD pattern after grinding [1] | further results
CC(C)[C@H]1C(=O)N(C2CC2)C(=O)N1c1cn2c(n1)-c1ccc(N3CCC[C@H]3C(N)=O)cc1OCC2 [Compound 1, (S)-1-(2-((S)-3-cyclopropyl-5-isopropyl-2,4-dioxoimidazolidin-1-yl)-5,6-dihydrobenzo[f]imidazo[1,2-d][1,4]oxazepin-9-yl)pyrrolidine-2-carboxamide] |  |  |  |  |  |  |  |  |  |  |  |  | pIC50 (PI3Kα): ≥ 8.30; pIC50 (PI3Kβ): < 6.22; pIC50 (MCF-7 cells): 7.33; pIC50 (PI3Kγ): < 6.22
Cc1nc(-c2cn3c(n2)-c2ccc(-c4cnn(C(C)(C)C(N)=O)c4)cc2OCC3)n(C(C)C)n1 [Taselisib] |  |  |  |  |  |  |  |  |  |  |  |  | selectivity for the α-subunit compared to the β-subunit [6]: 31 fold

Further lines, with some results ahead:

mass gain (DVS) (DVS assay) [%] | Total impurity content of the related material ([2]; Day 0) [%] | Total impurity content of the related material ([2]; High humidity of 75%, Day 5) [%] | Total impurity content of the related material ([2]; High humidity of 75%, Day 30) [%] | Total impurity content of the related material ([2]; High humidity of 92.5%, Day 5) [%] | Total impurity content of the related material ([2]; High humidity of 92.5%, Day 30) [%] | Total impurity content of the related material [2, 7] [%] | Total impurity content of the related material [2, 8] [%] | Total impurity content of the related material [2, 9] [%] | Total impurity content of the related material [2, 10] [%] | Result: crystal form after tabletting [3] | SMILES | XRPD pattern after grinding [1] | further results
1.9 | 0.24 | 0.25 | 0.29 | 0.23 | 0.24 | 0.26 | 0.34 | 0.38 | 0.43 | Form B-1 | CC(C)[C@H]1C(=O)N(C2CC2)C(=O)N1c1cn2c(n1)-c1ccc(N3CCC[C@H]3C(N)=O)cc1OCC2 [Crystal Form B-1, (S)-1-(2-((S)-3-cyclopropyl-5-isopropyl-2,4-dioxoimidazolidin-1-yl)-5,6-dihydrobenzo[f]imidazo[1,2-d][1,4]oxazepin-9-yl)pyrrolidine-2-carboxamide] | remained consistent with the original patterns | 
0.7 | 0.07 | 0.07 | 0.07 | 0.07 | 0.07 | 0.07 | 0.10 | 0.08 | 0.10 | Form C | CC(C)[C@H]1C(=O)N(C2CC2)C(=O)N1c1cn2c(n1)-c1ccc(N3CCC[C@H]3C(N)=O)cc1OCC2 [Crystal Form C, (S)-1-(2-((S)-3-cyclopropyl-5-isopropyl-2,4-dioxoimidazolidin-1-yl)-5,6-dihydrobenzo[f]imidazo[1,2-d][1,4]oxazepin-9-yl)pyrrolidine-2-carboxamide] | remained consistent with the original patterns | change of testing indexes compared with day 0, long-term test ([4]; 25° C. ± 2° C., RH60% ± 5%, 6 months): no significant change; change of testing indexes compared with day 0, accelerated test ([4]; 40° C. ± 2° C., RH75%, 6 months): no significant change; change in characteristics, content, crystal form and isomer compared with day 0 ([4]; uncovered, high temperature (40° C., 60° C.) or high humidity (75%, 92.5%), 30 days): no significant change; AUC [5]: 36600 ng·h/mL; Cmax [5]: 3700 ng/mL
 | 0.12 | 0.39 | 0.61 | 0.42 | 0.61 | 0.55 | 0.53 | 0.70 | 0.64 |  | CC(C)[C@H]1C(=O)N(C2CC2)C(=O)N1c1cn2c(n1)-c1ccc(N3CCC[C@H]3C(N)=O)cc1OCC2 [Crystal Form M, (S)-1-(2-((S)-3-cyclopropyl-5-isopropyl-2,4-dioxoimidazolidin-1-yl)-5,6-dihydrobenzo[f]imidazo[1,2-d][1,4]oxazepin-9-yl)pyrrolidine-2-carboxamide] |  | 
